Measured values: publication PMC4145321, “Synthesis and Biological Evaluation of Novel 3-Alkylpyridine Marine Alkaloid Analogs with Promising Anticancer Activity” (Marine Drugs, 2014)
Entries after “also recorded” stand apart in the source; their conditions may differ.

Columns and labels:
[1] = test system: RKO-AS-45-1 cells (colon carcinoma); assay: MTT cytotoxicity assay, RKO-AS-45-1; type: cell-based, human; details: for IC50: Homo sapiens, RKOAS451, MTT, 48 h incubation, triplicate, average ± SD; for Selectivity Index (SI) RKO AS-45-1: ratio of IC50 WI-26VA4 and IC50 RKO-AS-45-1
Experimental: (§1) The cytotoxicity of the compounds was assessed with the human cell lines, HeLa (cervix adenocarcinoma ATCC# CCl-2), RKO-AS-45-1 (colon carcinoma ATCC# CRL-2579) and WI-26 VA4 (fibroblast ATCC# CCL-95.1) using the MTT (3-(4,5-dimethylthiazol-2-yl)-2,5-diphenyltetrazolium bromide) (Sigma, St. Louis, MO, USA) colorimetric method. Briefly, the cells were plated in 96-well plates (1 × 10^5 cells/well) and incubated for 24 h at 37 °C in a humidified atmosphere with 5% CO2. After 24 h, the wells were washed with culture medium (RPMI +10% inactivated fetal calf serum + 2 mM L-glutamine) and incubated with the compounds at various concentrations (0.05 to 500 μM). After 48 h of incubation, the plates were treated with MTT. The colorimetric measurement was performed at 550 nm using the microplate reader, Spectramax M5e (Molecular Devices, Sunnyvale, CA, USA). Cytotoxicity was scored as the percent reduction in absorbance versus untreated control cultures. All experiments were performed in triplicate. The results are expressed as the mean of the IC50 (the lethal drug concentration that reduced cell viability by 50%). The IC50 values were calculated using OriginPro 8.0 (OriginLab Corporation, Northampton, MA, USA) software. A selectivity index (SI), corresponding to the ratio between the cytotoxic activities of each compound against the HeLa and RKO-AS-45-1 cell lines and the cytotoxicity against WI-26 VA4, was calculated as follows: […]

[2] = test system: HeLa cells (cervix adenocarcinoma); assay: MTT cytotoxicity assay, HeLa; type: cell-based, human; details: for IC50: Homo sapiens, HeLa, MTT, 48 h incubation, triplicate, average ± SD; for Selectivity Index (SI) HeLa: ratio of IC50 WI-26VA4 and IC50 HeLa
Experimental: as §1

[3] = test system: RKO-AS-45-1 cells; assay: Cytokinesis-block micronucleus assay; type: cell-based, human; details: 3 h treatment
Experimental: To assess the potential of the synthetic alkaloids to induce DNA damage (chromosomal mutations) in vitro, the cytokinesis-block micronucleus assay was performed in the RKO-AS-45-1 cell line. The procedures were developed as described by Fenech, with adaptations. Briefly, the cells were seeded in 24-well plates (2.5 × 10^5 cells/well) and maintained at 37 °C in a humid atmosphere with 5% CO2. After 24 h, the cells were washed twice with PBS, and the treatments were performed in culture media without serum for three hours. Each treatment was performed in triplicate. The negative control group was treated with PBS, and a positive control group was established with the treatment of the cells with methyl methanesulfonate (MMS—400 μM).
After completing treatments with three concentrations lower than the IC50 of Compounds 4c (4.8, 9.6 and 14.3 μM) and 5c (5.9, 11.8, and 17.8 μM) diluted in culture media, the cells were washed twice with PBS, trypsinized and centrifuged for 5 min at 1200 rpm. The pellet was then resuspended in chilled hypotonic solution (1% sodium citrate) together with one drop of 1% formaldehyde and carefully homogenized with a Pasteur pipette. This cell suspension was centrifuged for 5 min at 1200 rpm and resuspended in 5 mL of fixative, methanol/acetic acid (3:1 v/v). Next, the tubes were centrifuged for 5 min, and the supernatant was discarded; the cell suspension was spread onto slides previously cleaned and covered with a film of chilled distilled water.
At the moment of cytogenetic analysis, the slides were stained with DAPI (4′,6-diamidino-2-phenylindole) diluted in phosphate buffer (0.06 M Na2HPO4 and 0.06 M KH2PO4, pH 6.8) for 2 min, washed with distilled water and analyzed under a fluorescent microscope (Zeiss, Axioscope) with an excitation filter of 365 nm and a barrier filter of 445/450 nm. Two thousands cells with a well-preserved cytoplasm were analyzed for each treatment in a blind test. Cells containing 1–3 micronuclei were scored. The criterion for the identification of MNs was according to a previous report. […]

[4] = test system: RKO-AS-45-1 cells; assay: Frequency of binucleation (mitotic index); type: cell-based, human; details: 300 cells counted
Experimental: The influence of the synthetic alkaloids on cell division was assessed by calculating the frequency of binucleation in RKO-AS-45-1 cells. The same slides prepared for the micronucleus assay were used, and 300 cells with a well-preserved cytoplasm were counted using fluorescence microscopy, as described above. The frequency of binucleated cells was calculated as the proportion (percentage) of cells undergoing complete cell division after exposure to digoxin and controls.

[5] = test system: RKO-AS-45-1 cells; assay: TUNEL apoptosis assay, RKO-AS-45-1; type: cell-based, human; details: 48 h; 4c at 5.1 μM, 5c at 19.1 μM
Experimental: (§2) Apoptotic cell death was measured using the APO-BrdU TUNEL assay kit (Invitrogen, Carlsbad, CA, USA). Briefly, the effect of Compounds 4c and 5c and etoposide on DNA fragmentation was determined using Hela and RKO-AS-45-1 cells. The cells were incubated with the compounds for 48 h, as described above, and fixed using a solution of ice-cold 70% ethanol. The cells were then counterstained with 5-bromo-2′-deoxyuridine 5′-triphosphate (BrdUTP) in the presence of terminal deoxynucleotidyl transferase (TdT) and stained with an anti-BrdU monoclonal antibody-PRB-1 Alexa Fluor 488 conjugate, as previously described. The loaded cells were visualized by fluorescence microscopy using a Zeiss Axiovert 200 (Carl Zeiss, Oberkochen, Germany).

[6] = test system: HeLa cells; assay: TUNEL apoptosis assay, HeLa; type: cell-based, human; details: 48 h; 4c at 19.1 μM, 5c at 8.5 μM
Experimental: as §2

[7] = test system: WI-26VA4 cells (lung fibroblast, non-cancerous); assay: MTT cytotoxicity assay, WI-26VA4; type: cell-based; details: Homo sapiens, WI26VA4, 48 h incubation, triplicate, average ± SD
Experimental: The cytotoxicity of the compounds was assessed with the human cell lines, HeLa (cervix adenocarcinoma ATCC# CCl-2), RKO-AS-45-1 (colon carcinoma ATCC# CRL-2579) and WI-26 VA4 (fibroblast ATCC# CCL-95.1) using the MTT (3-(4,5-dimethylthiazol-2-yl)-2,5-diphenyltetrazolium bromide) (Sigma, St. Louis, MO, USA) colorimetric method. Briefly, the cells were plated in 96-well plates (1 × 10^5 cells/well) and incubated for 24 h at 37 °C in a humidified atmosphere with 5% CO2. After 24 h, the wells were washed with culture medium (RPMI +10% inactivated fetal calf serum + 2 mM L-glutamine) and incubated with the compounds at various concentrations (0.05 to 500 μM). After 48 h of incubation, the plates were treated with MTT. The colorimetric measurement was performed at 550 nm using the microplate reader, Spectramax M5e (Molecular Devices, Sunnyvale, CA, USA). Cytotoxicity was scored as the percent reduction in absorbance versus untreated control cultures. All experiments were performed in triplicate. […] The IC50 values were calculated using OriginPro 8.0 (OriginLab Corporation, Northampton, MA, USA) software. A selectivity index (SI), corresponding to the ratio between the cytotoxic activities of each compound against the HeLa and RKO-AS-45-1 cell lines and the cytotoxicity against WI-26 VA4, was calculated as follows: SI = […].

[8] = test system: actin cytoskeleton of RKO-AS-45-1 cells; assay: Actin polymerization by fluorescence microscopy; type: cell-based, human; details: 19.1 μM, 24 h, phalloidin Alexa Fluor 488
Experimental: The control with non-treated cells was included in parallel. After 24 h, the cells were rinsed in phosphate-buffered saline (PBS) for 3 min, fixed in paraformaldehyde (#15,812-7, Sigma) at 4% in PBS for 1 h and permeabilized with 0.1% Triton X-100 (#17-1315-01, Plusone, GE Healthcare, Fairfield, CA, USA) in PBS for 10 min. The RKO-AS-45-1 cells were labeled with Phalloidin Alexa Fluor® 488 (#A12379, Molecular Probes, Eugene, OR, USA), and the nuclei were counterstained with 4,6-diaminidino-2-phenylindole (DAPI; Molecular Probes, #D1306) according to the manufacturer’s instructions. Image acquisition was performed using an AxioVert 200 microscope (Carl Zeiss, Oberkochen, Germany).

| SMILES | IC50 [1] [µM] | IC50 [2] [µM] | Selectivity Index (SI) RKO AS-45-1 [1] | Selectivity Index (SI) HeLa [2] | further results |
| --- | --- | --- | --- | --- | --- |
| c1cncc(CCCOCCCCCCOC2CCCCO2)c1 (stereo not shown) [Compound 4a, 1-[3-(pyridin-3-yl)propoxy]-6-(oxan-2-yloxy)hexane] | > 300 | > 300 | – | – | – |
| c1cncc(CCCOCCCCCCCCOC2CCCCO2)c1 (stereo not shown) [Compound 4b, 1-[3-(pyridin-3-yl)propoxy]-8-(oxan-2-yloxy)octane] | 23.7 ± 1.7 | 8.1 ± 2.7 | 1.59 | 4.66 | – |
| c1cncc(CCCOCCCCCCCCCCOC2CCCCO2)c1 (stereo not shown) [Compound 4c, 1-[3-(pyridin-3-yl)propoxy]-10-(oxan-2-yloxy)decane] | 5.1 ± 1.1 | 4 ± 0.8 | 1.25 | 1.60 | Micronucleus frequency vs control ([3]; 2.5 and 4.0 μM (two highest concentrations), 2000 binucleated cells, p < 0.05): significantly higher than that detected in the control; also recorded: statistically higher than that identified in the control group; Micronucleus frequency vs control ([3]; lower concentrations evaluated): did not induce significant alterations in the MN frequency; Frequency of binucleation vs negative control ([4]; two highest concentrations assessed): reduced the binucleation frequency; Apoptosis induction (TUNEL) [5]: promoted apoptosis; Apoptosis induction (TUNEL) [6]: promoted apoptosis |
| c1cncc(CCCOCCCCCCCCCCCCOC2CCCCO2)c1 (stereo not shown) [Compound 4d, 1-[3-(pyridin-3-yl)propoxy]-12-(oxan-2-yloxy)dodecane] | 3.2 ± 1.7 | 9.4 ± 0.7 | 3.53 | 1.20 | – |
| OCCCCCCOCCCc1cccnc1 [Compound 5a, 6-[3-(pyridin-3-yl)propoxy]hexan-1-ol] | > 400 | > 400 | – | – | – |
| OCCCCCCCCOCCCc1cccnc1 [Compound 5b, 8-[3-(pyridin-3-yl)propoxy]octan-1-ol] | > 300 | 192 ± 10.1 | – | 0.87 | IC50 [7]: 167 ± 10.5 µM |
| OCCCCCCCCCCOCCCc1cccnc1 [Compound 5c, 10-[3-(pyridin-3-yl)propoxy]decan-1-ol] | 19.1 ± 4.4 | 8.5 ± 2.4 | 5.18 | 11.65 | Micronucleus frequency vs control ([3]; 17.8 μM (highest concentration), 2000 binucleated cells, p < 0.05): significantly higher than that found in the control; also recorded: statistically higher than that identified in the control group; Frequency of binucleation / proliferation rate vs control ([4]; highest concentration assessed, p < 0.05): reduced the proliferation rate; also recorded: induced a reduction in the proliferation rate; Apoptosis induction (TUNEL) [5]: promoted apoptosis; Apoptosis induction (TUNEL) [6]: promoted apoptosis; Effect on actin cytoskeleton / actin polymerization [8]: actin polymerization is altered; also recorded: accentuated alteration of the cellular actin network |
| OCCCCCCCCCCCCOCCCc1cccnc1 [Compound 5d, 12-[3-(pyridin-3-yl)propoxy]dodecan-1-ol] | 132 ± 16.8 | 8.8 ± 1.9 | 0.25 | 3.87 | – |
| COc1cc([C@@H]2c3cc4c(cc3[C@@H](O[C@@H]3O[C@@H]5CO[C@@H](C)O[C@H]5[C@H](O)[C@H]3O)[C@H]3COC(=O)[C@H]23)OCO4)cc(OC)c1O [Etoposide, reference compound] | 1.4 ± 0.6 | 2.7 ± 0.4 | – | – | – |
